ChEMBL document CHEMBL3421538, “Structure-activity relationships and molecular studies of novel arylpiperazinylalkyl purine-2,4-diones and purine-2,4,8-triones with antidepressant and anxiolytic-like activity” (Eur J Med Chem, 2015)
The source made the active and inactive calls. No cut-off for these calls is given here.

How the values were obtained:
Mus musculus [1] = assay: Toxicity in Swiss mouse assessed as spontaneous locomotor activity at 5 to 20 mg/kg, ip measured during 2 to 6 mins; type: organism-based; set-up: route intraperitoneal; settings: in vivo
Mus musculus [2] = assay: Potency index, ratio of MED for imipramine to MED for compound for antidepressant-like activity in ip dosed Swiss mouse; type: functional
[3] = target: T1, 5-hydroxytryptamine receptor 1A (Homo sapiens) (UniProt P08908); assay: Agonist activity at human 5-HT1A receptor expressed in HEK293 cells assessed as stimulation of cAMP levels at 1 uM relative to 8-OH-DPAT; type: functional, cell-based
T1 sequence (whole entry): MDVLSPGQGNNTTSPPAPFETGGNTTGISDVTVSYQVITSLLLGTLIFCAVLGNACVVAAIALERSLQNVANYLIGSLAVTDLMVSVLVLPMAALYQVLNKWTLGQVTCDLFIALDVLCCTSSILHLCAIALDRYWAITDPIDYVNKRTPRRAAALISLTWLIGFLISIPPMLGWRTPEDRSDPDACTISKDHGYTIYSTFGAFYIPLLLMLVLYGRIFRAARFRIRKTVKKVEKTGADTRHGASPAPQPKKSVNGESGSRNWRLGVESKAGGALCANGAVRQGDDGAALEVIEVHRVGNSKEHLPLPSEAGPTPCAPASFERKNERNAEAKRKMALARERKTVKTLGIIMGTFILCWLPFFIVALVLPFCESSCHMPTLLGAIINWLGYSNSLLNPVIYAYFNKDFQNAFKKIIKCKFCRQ

D(2) dopamine receptor [4] = target: T2, D(2) dopamine receptor (Homo sapiens, UniProt P14416); assay: Antagonist activity against human dopamine D2L receptor expressed in HEK293 cells assessed as inhibition of […]-induced cAMP levels at 1 uM; type: functional, cell-based
T2 sequence (P14416 whole entry): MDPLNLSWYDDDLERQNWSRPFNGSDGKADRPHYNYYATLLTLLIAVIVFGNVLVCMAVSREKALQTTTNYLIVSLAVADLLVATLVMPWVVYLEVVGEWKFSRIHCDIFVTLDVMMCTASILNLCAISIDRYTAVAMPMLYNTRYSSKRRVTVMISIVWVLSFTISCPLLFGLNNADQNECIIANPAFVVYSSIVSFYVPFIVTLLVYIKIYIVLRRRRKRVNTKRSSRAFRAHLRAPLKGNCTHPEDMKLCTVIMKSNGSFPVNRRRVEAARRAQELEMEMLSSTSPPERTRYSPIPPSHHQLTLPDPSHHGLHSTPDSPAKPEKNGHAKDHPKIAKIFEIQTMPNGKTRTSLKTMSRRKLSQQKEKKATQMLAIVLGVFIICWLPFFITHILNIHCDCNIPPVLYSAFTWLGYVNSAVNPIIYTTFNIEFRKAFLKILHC

[5] = Selectivity index, ratio of Ki for rat hippocampus 5-HT1A receptor to Ki for human recombinant 5-HT7 receptor
Mus musculus [6] = assay: Antidepressant-like activity in Swiss mouse assessed as reduction in immobility time at 1.25 mg/kg, ip administered 60 mins before test; type: functional; set-up: scale not given: the % may be the effect or the level left; settings: route intraperitoneal
D(2) dopamine receptor [7] = target: T2, D(2) dopamine receptor; assay: Antagonist activity against human dopamine D2L receptor expressed in HEK293 cells assessed as inhibition of […]-induced cAMP levels at 0.1 uM; type: functional, cell-based
[8] = target: T3, 5-hydroxytryptamine receptor 7 (Homo sapiens, UniProt P34969); assay: Displacement of [3H]LSD from human recombinant 5-HT7 receptor expressed in CHOK1 cells incubated for 60 mins by microbeta plate reader based method; type: cell-based, CHO-K1
T3 sequence (P34969 whole entry): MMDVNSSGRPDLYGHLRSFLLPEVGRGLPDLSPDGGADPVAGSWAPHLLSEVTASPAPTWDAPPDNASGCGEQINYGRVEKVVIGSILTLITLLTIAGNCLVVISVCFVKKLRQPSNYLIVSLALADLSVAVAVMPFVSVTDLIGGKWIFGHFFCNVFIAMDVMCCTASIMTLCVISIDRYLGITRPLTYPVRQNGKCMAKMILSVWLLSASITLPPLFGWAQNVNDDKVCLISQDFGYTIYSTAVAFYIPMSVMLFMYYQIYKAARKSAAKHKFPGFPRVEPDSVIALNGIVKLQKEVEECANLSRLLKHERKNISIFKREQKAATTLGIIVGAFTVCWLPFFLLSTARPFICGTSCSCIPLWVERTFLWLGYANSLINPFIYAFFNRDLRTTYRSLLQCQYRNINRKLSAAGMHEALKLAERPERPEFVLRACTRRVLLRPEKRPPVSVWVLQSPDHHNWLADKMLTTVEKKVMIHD

[9] = target: T1, 5-hydroxytryptamine receptor 1A (Homo sapiens); assay: Agonist activity at human 5-HT1A receptor expressed in HEK293 cells assessed as stimulation of cAMP levels at 0.1 uM relative to 8-OH-DPAT; type: functional, cell-based
[10] = target: T4, 5-hydroxytryptamine receptor 6 (Homo sapiens, UniProt P50406); assay: Displacement of [3H]LSD from human recombinant 5-HT6 receptor expressed in HEK293 cells incubated for 60 mins by microbeta plate reader based method; type: cell-based
T4 sequence (P50406 whole entry): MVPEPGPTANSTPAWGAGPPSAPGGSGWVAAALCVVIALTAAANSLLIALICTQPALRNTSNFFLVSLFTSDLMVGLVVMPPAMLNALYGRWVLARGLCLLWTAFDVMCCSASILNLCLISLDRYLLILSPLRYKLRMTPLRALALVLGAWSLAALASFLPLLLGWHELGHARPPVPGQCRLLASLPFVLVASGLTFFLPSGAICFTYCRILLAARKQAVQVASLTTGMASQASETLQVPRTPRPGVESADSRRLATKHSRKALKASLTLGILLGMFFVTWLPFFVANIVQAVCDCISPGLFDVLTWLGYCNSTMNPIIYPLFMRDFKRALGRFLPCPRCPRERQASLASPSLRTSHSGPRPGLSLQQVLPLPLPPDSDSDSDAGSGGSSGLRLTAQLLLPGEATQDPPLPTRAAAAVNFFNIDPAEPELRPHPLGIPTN

D(2) dopamine receptor [11] = target: T2, D(2) dopamine receptor; assay: Displacement of [3H]N-methylspiperone from human recombinant dopamine D2 receptor expressed in CHOK1 cells incubated for 60 mins by microbeta plate reader based method; type: cell-based, CHO-K1
Mus musculus [12] = assay: Antidepressant-like activity in ip dosed Swiss mouse assessed as reduction in immobility time administered 60 mins before test; type: functional; settings: read-out: MED
[13] = target: T3, 5-hydroxytryptamine receptor 7; assay: Antagonist activity against human 5-HT7 receptor expressed in HEK293 cells assessed as inhibition of 5-HT-induced cAMP levels at 1 uM; type: functional, cell-based
Mus musculus [14] = assay: Antidepressant-like activity in Swiss mouse assessed as reduction in immobility time at 0.625 to 5 mg/kg, ip administered 60 mins before test; type: functional, organism-based
[15] = target: T5, 5-hydroxytryptamine receptor 1A (Rattus norvegicus, UniProt P19327); assay: Displacement of [3H]8-OH-DPAT from rat hippocampus 5-HT1A receptor incubated for 20 mins by microbeta plate reader based method
T5 sequence (P19327 whole entry): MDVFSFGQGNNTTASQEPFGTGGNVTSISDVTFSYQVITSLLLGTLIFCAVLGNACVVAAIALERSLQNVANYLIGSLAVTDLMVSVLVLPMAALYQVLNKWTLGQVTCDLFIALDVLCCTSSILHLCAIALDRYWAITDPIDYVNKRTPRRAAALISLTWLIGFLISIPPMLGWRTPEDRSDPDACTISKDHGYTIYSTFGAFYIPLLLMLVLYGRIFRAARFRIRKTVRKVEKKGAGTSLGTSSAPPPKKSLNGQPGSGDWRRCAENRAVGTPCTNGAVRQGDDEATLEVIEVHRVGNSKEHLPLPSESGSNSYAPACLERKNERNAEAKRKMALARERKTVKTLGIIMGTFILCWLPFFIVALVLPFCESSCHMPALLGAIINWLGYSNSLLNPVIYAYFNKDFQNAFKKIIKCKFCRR

Mus musculus [16] = assay: Toxicity in Swiss mouse assessed as spontaneous locomotor activity at 0.625 to 5 mg/kg, ip measured during 2 to 6 mins; type: organism-based; set-up: route intraperitoneal; settings: in vivo
D(2) dopamine receptor [17] = target: T2, D(2) dopamine receptor; assay: Agonist activity at human D2L receptor expressed in HEK293 cells assessed as stimulation of cAMP levels at 1 uM relative to dopamine; type: functional, cell-based
[18] = target: T3, 5-hydroxytryptamine receptor 7; assay: Agonist activity at human 5-HT7 receptor expressed in HEK293 cells assessed as stimulation of cAMP levels at 1 uM relative to 5HT; type: functional, cell-based
Mus musculus [19] = assay: Anxiolytic-like activity in Swiss mouse assessed as increase in number of punished crossings measured during 60 seconds period at 1.25 to 5 mg/kg, ip by four-plate test; type: functional, organism-based
[20] = target: T3, 5-hydroxytryptamine receptor 7; assay: Antagonist activity against human 5-HT7 receptor expressed in HEK293 cells assessed as inhibition of 5-HT-induced cAMP levels at 0.1 uM; type: functional, cell-based
[21] = target: T1, 5-hydroxytryptamine receptor 1A (Homo sapiens); assay: Antagonist activity against human 5-HT1A receptor expressed in HEK293 cells assessed as inhibition of […]-induced cAMP levels at 0.1 uM; type: functional, cell-based
D(2) dopamine receptor [22] = target: T2, D(2) dopamine receptor; assay: Agonist activity at human D2L receptor expressed in HEK293 cells assessed as stimulation of cAMP levels at 0.1 uM relative to dopamine; type: functional, cell-based
[23] = target: T1, 5-hydroxytryptamine receptor 1A (Homo sapiens); assay: Antagonist activity against human 5-HT1A receptor expressed in HEK293 cells assessed as inhibition of […]-induced cAMP levels at 1 uM; type: functional, cell-based
[24] = target: T3, 5-hydroxytryptamine receptor 7; assay: Agonist activity at human 5-HT7 receptor expressed in HEK293 cells assessed as stimulation of cAMP levels at 0.1 uM relative to 5HT; type: functional, cell-based
[25] = target: D(3) dopamine receptor (Homo sapiens) (UniProt P35462); assay: Displacement of [3H]N-methylspiperone from dopamine D3 receptor (unknown origin) assessed as total radioligand binding at 1.66 x 10^-7 M incubated for 60 mins by microbeta plate reader based method
Sequence of D(3) dopamine receptor (Homo sapiens) (P35462 whole entry): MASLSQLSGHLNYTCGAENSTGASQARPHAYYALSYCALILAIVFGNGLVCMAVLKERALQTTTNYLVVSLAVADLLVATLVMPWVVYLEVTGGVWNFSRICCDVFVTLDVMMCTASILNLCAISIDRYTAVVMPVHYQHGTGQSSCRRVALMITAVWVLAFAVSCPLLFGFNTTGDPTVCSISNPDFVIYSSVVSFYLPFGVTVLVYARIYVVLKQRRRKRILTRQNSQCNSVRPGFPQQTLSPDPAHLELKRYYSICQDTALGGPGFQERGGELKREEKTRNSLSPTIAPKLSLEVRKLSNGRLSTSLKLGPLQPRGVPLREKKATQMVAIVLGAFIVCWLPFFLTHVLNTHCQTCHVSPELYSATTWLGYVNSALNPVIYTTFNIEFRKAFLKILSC

Mus musculus [26] = assay: Antidepressant-like activity in Swiss mouse assessed as reduction in immobility time at 10 mg/kg, ip administered 60 mins before test; type: functional; set-up: scale not given: the % may be the effect or the level left; settings: route intraperitoneal
Mus musculus [27] = assay: Antidepressant-like activity in Swiss mouse assessed as reduction in immobility time at 2.5 to 20 mg/kg, ip administered 60 mins before test; type: functional, organism-based
[28] = target: T4, 5-hydroxytryptamine receptor 6; assay: Displacement of [3H]LSD from human recombinant 5-HT6 receptor expressed in HEK293 cells assessed as total radioligand binding at 1.66 x 10^-7 M incubated for 60 mins by microbeta plate reader based method; type: cell-based
[29] = target: T6, 5-hydroxytryptamine receptor 1A (Rattus norvegicus) (UniProt P19327); assay: Displacement of [3H]8-OH-DPAT from rat hippocampus 5-HT1A receptor assessed as total radioligand binding at 1 uM incubated for 20 mins by microbeta plate reader based method
T6 sequence (whole entry): T5 sequence (P19327 whole entry)

Mus musculus [30] = assay: Anxiolytic-like activity in Swiss mouse assessed as increase in number of punished crossings measured during 60 seconds period at 5 to 20 mg/kg, ip by four-plate test; type: functional, organism-based
[31] = target: D(3) dopamine receptor (Homo sapiens) (UniProt P35462); assay: Displacement of [3H]N-methylspiperone from dopamine D3 receptor (unknown origin) assessed as total radioligand binding at 1 uM incubated for 60 mins by microbeta plate reader based method
Mus musculus [32] = assay: Toxicity in Swiss mouse assessed as spontaneous locomotor activity at 2.5 to 20 mg/kg, ip measured during 2 to 6 mins; type: organism-based; set-up: route intraperitoneal; settings: in vivo
[33] = target: T4, 5-hydroxytryptamine receptor 6; assay: Displacement of [3H]LSD from human recombinant 5-HT6 receptor expressed in HEK293 cells assessed as total radioligand binding at 1 uM incubated for 60 mins by microbeta plate reader based method; type: cell-based
[34] = target: T6, 5-hydroxytryptamine receptor 1A (Rattus norvegicus); assay: Displacement of [3H]8-OH-DPAT from rat hippocampus 5-HT1A receptor assessed as total radioligand binding at 1.66 x 10^-7 M incubated for 20 mins by microbeta plate reader based method

| Structure (SMILES) | Activity [3] [%] | inhibition (D(2) dopamine receptor [4]) [%] | Ratio Ki [5] | inhibition (D(2) dopamine receptor [7]) [%] | Ki [8] [µM] | Activity [9] [%] | Ki (D(2) dopamine receptor [11]) [µM] | inhibition [13] [%] | Ki [15] [µM] | Activity (D(2) dopamine receptor [17]) [%] | Activity [18] [%] | inhibition [20] [%] | inhibition [21] [%] | Activity (D(2) dopamine receptor [22]) [%] | inhibition [23] [%] | Activity [24] [%] | also measured |
| --- | --- | --- | --- | --- | --- | --- | --- | --- | --- | --- | --- | --- | --- | --- | --- | --- | --- |
| CN(C)CCCN1c2ccccc2CCc2ccccc21.Cl [IMIPRAMINE HYDROCHLORIDE] | – | – | – | – | – | – | – | – | – | – | – | – | – | – | – | – | Activity (Mus musculus [1]): Non-toxic |
| Cn1c(=O)c2c(nc3n(CCCCCN4CCN(c5ccc(Cl)cc5)CC4)c(-c4ccccc4)cn23)n(C)c1=O | 2.3 | 75.6 | 0.7 | 16.5 | 0.122 | -7 | 0.009 | 22.1 | 0.093 | 7.7 | 9.1 | -8.4 | 71.8 | 3.1 | 34.7 | 1.9 | Ratio (Mus musculus [2]): 4; Activity (Mus musculus [6]): 40%; Ki [10]: 0.045 µM; minimal effective dose (Mus musculus [12]): 1.25 mg/kg; Activity (Mus musculus [14]): Active; Activity (Mus musculus [16]): Non-toxic; Activity (Mus musculus [19]): inactive |
| Cn1c(=O)c2c(nc3n(CCCCN4CCN(c5ccccc5O)CC4)c(-c4ccccc4)cn23)n(C)c1=O | 37.4 | 77.8 | 0.2 | 45 | 0.03 | 23.4 | 0.004 | 64.3 | 0.006 | 28 | -2.2 | 7.7 | 82.4 | 19.2 | 104 | 4.5 | Activity [25]: 81%; Activity (Mus musculus [26]): 17%; Activity (Mus musculus [27]): Active; Activity [28]: 69%; Activity [29]: 7%; Activity (Mus musculus [30]): inactive; Activity [31]: 39%; Activity (Mus musculus [32]): Non-toxic; Activity [33]: 37%; Activity [34]: 42% |
